# Laboratory results as given in article PMC11946101, “Structural Insights into Salinosporamide a Mediated Inhibition of the Human 20S Proteasome” (Molecules, 2025).
# Experiments:
# Assay type in all cases: biochemical
# [1] = molecular target: T1, human 20S proteasome subunit β1 (Homo sapiens, UniProt P28072); test: cryo-EM structure at […] Å; IC50 with Z-LLE-amc
# T1 construct: gene PSMB6; human constitutive 20S proteasome (h20S), whole complex; catalytic N-terminal Thr1; with other subunits of the 20S proteasome (α1–α7, β1–β7)
# T1 sequence (Q06323 whole entry): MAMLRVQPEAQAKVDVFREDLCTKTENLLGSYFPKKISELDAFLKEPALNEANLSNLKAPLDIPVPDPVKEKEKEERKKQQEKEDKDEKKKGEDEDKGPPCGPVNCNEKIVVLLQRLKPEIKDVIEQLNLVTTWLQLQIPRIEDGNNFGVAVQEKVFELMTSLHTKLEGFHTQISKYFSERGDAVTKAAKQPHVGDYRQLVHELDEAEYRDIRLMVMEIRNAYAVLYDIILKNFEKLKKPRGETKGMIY
# T1 sequence (P28072 35-239): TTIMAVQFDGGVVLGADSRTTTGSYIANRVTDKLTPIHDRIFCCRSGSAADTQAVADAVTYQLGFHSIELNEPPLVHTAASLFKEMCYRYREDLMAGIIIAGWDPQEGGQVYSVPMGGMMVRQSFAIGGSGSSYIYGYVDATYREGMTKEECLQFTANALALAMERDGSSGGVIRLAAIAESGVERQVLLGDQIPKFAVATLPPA
# [2] = molecular target: T2, human 20S proteasome subunit β2 (Homo sapiens, UniProt Q99436); test: cryo-EM structure at […] Å; IC50 with Z-VLR-amc
# T2 construct: gene PSMB7; human constitutive 20S proteasome (h20S), whole complex; catalytic N-terminal Thr1; with other subunits of the 20S proteasome (α1–α7, β1–β7)
# T2 sequence (Q06323 whole entry): as the sequence (Q06323 whole entry) above
# T2 sequence (Q99436 44-277): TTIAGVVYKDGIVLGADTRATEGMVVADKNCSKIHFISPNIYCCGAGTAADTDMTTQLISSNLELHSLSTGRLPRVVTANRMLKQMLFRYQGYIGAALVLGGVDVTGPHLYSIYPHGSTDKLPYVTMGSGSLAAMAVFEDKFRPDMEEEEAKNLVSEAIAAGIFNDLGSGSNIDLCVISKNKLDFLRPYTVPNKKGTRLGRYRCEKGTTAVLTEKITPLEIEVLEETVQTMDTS
# [3] = system: T3, Trichomonas vaginalis 20S proteasome (Tv20S) subunit β5; test: IC50 for the individual proteolytic subunit (Figure S5)
# T3 construct: Tv20S, whole complex; with other subunits of the Tv20S proteasome
# [4] = system: T4, Trichomonas vaginalis 20S proteasome (Tv20S) subunit β1; test: as above
# T4 construct: Tv20S, whole complex; with other subunits of the Tv20S proteasome
# [5] = molecular target: T5, human 20S proteasome subunit β5 (Homo sapiens, UniProt P28074); test: cryo-EM structure at […] Å; IC50 with Suc-LLVY-amc
# T5 construct: gene PSMB5; human constitutive 20S proteasome (h20S), whole complex; catalytic N-terminal Thr1; with other subunits of the 20S proteasome (α1–α7, β1–β7)
# T5 sequence (Q06323 whole entry): as the sequence (Q06323 whole entry) above
# T5 sequence (P28074 60-263): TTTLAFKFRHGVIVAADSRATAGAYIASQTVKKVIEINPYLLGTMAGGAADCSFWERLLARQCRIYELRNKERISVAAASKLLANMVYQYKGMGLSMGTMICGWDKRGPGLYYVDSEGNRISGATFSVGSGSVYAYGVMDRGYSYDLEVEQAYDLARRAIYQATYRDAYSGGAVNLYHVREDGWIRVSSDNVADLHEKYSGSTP
smiles,measurement,setting,value
"C[C@@]12OC(=O)[C@]1([C@@H](O)[C@@H]1C=CCCC1)NC(=O)[C@@H]2CCCl [MZB, Marizomib]",IC50,[1],0.597 µM
same,IC50,[2],0.326 µM
same,IC50,[3],0.0039 ± 0.0002 µM
same,IC50,[4],0.244 ± 0.0722 µM
same,IC50,[5],0.0185 µM
